Assay results from a melting point compilation (Tetko et al.; mined from patent text by program, amines drawn as free bases though some values may be those of a salt).

SMILES	melting point [°C]
CC(=O)Nc1ccc(C=O)c(F)c1F	154
CCN(C)c1nc2sc3c(NCCCN4CCCC4=O)ncnc3c2c2c1CCC(C)(C)C2	166 to 167
COCC1(C)CC(=O)c2cc(C#N)ccc2O1 (configuration not stated)	79 to 81
CN(C)CCNC(=O)N1CCN(c2ccc(C(N)=O)cc2)CC1	193 to 195
CC(=O)Nc1nc(CCc2ccc(NC(=O)CNC(=O)OC(C)(C)C)cc2)c(Cc2ccc(S(C)(=O)=O)cc2)s1	186 to 188
CCCOc1oc(=O)c2cc(NC(=O)NCC)ccc2c1Cl	189 to 191
CC(C)C1C(=O)N(Cc2ccccc2)S(=O)(=O)N1C (configuration not stated)	52.5 to 54
COC(=O)C=C1NCC(C)OC1=O (configuration not stated)	98 to 101
CN1CCC2(CC1)c1ccccc1Oc1c(N)cccc12	173 to 174
NC1(CCC(O)(P(=O)(O)O)P(=O)(O)O)CCCCC1	143
COc1ccc(Cc2cc(C(C)(C)C)c(O)c(C(C)(C)C)c2)cc1	139
CN(C)C(=O)Sc1ccc(Br)cc1C=O	118 to 120
CCCCCCCCCCCCCCOc1cccc(C(=O)N(CC(=O)O)CC(=O)O)c1	96 to 99
CCn1ncc2c3c(NCc4ccc(OC)c(Cl)c4)nnc(-n4cnc(C(=O)NC)c4)c3cnc21	181 to 183
Cc1nc(SCc2ccc(C(=O)O)s2)sc1CC(=O)O	188 to 190
CCC(C)S(=O)(=O)NN(CCC(=O)O)C(=O)c1ccc2nc(CCC3CCNCC3)[nH]c2c1 (configuration not stated)	180 to 185
N#Cc1ccc(COc2ccc(-c3ccc(C4Cc5ccccc5C(c5c(O)c6ccccc6oc5=O)C4)cc3)cc2)cc1 (configuration not stated)	127
CC(CF)(CF)C(=O)C(Br)Oc1ccc(Cl)cc1 (configuration not stated)	54 to 57
CS(=O)(=O)c1ccc(C(CC2CCCC2)C(=O)Nc2nccs2)cc1C#N (configuration not stated)	145 to 148
CC(C)[C@H](NC1CCCCC1)C(=O)O	> 300
CO[C@@H]1CN(Cc2ccccc2)C[C@H]1NC(=O)OC(C)(C)C	44 to 45
CNC1=NS(=O)N=C1NCCSCc1ccc(CN(C)C)s1 (configuration not stated)	98.5 to 102
CCc1sc2ncccc2c1S(=O)(=O)Nc1onc(C)c1Cl	152 to 154
C=CCOC(=O)CCCS(=O)C1CC(=O)N1CC(=O)NCCCCCCc1ccc(F)cc1 (configuration not stated)	95 to 96

SMILES	melting point [°C]
O=C(O)C(=O)c1ccc(OCCCCCCc2cccc(O)c2O)cc1	127 to 130
CCc1nn2ccc3c(c2c1CCNC(C)=O)CCO3	161 to 162
CCC1(O)CCC2(C)C(CCC3C4CCC(C5(C)OCCO5)C4(C)CC(=O)C32)C1 (configuration not stated)	144
CSC(=Nc1ccc(Cl)c(Cl)c1)NS(C)(=O)=O	122 to 125
COC(=O)c1c(C(F)F)nc(C(F)(F)F)c(C(=O)Cl)c1CC(C)C	71 to 75
Cn1c(COc2ccc(CC3SC(=O)NC3=O)cc2)nc2ccc(Oc3ccc(NC(=O)c4cccc(Cl)c4)cc3)cc21 (configuration not stated)	238 to 239
CCOC(=O)C(C#N)=NOC(=O)OC	69 to 71
CC(C)OC(=O)C=Cc1cc(-n2c(=O)cc(C(F)(F)F)n(C)c2=O)c(F)cc1Cl	137 to 139
Cc1nnc2cc(C(=O)O)cc(Cl)n12	259 to 260
CN1CCN(c2c(F)cc3c(=O)c(C(=O)O)cn4c3c2N(C)CC4)CC1	266 to 269
O=[N+]([O-])c1ccc(N2CCN(Cc3ccccc3)CC2)cc1	115 to 118
CC(=O)N(c1ccc(F)cc1Cl)S(=O)(=O)CCl	89 to 92
C=CCCn1ncc2c(N)c(C(=O)OCC=C)c(C)nc21	64 to 64.5
CN(C)Cc1ccc(CSCCNC2=NS(=O)(=O)N=C2NO)o1	203 to 205
COC(=O)CN(CCNC(=O)OC(C)(C)C)C(=O)Cc1cc2ccc(C)nc2[nH]c1=O	98 to 100
Cc1ccc2c(=O)c(S(=O)(=O)Cl)cn(C)c2c1	> 300
NS(=O)(=O)c1cc2[nH]c(C(Cl)Cl)nc2cc1Cl	225 to 227
OCC(O)Cn1ncc2c(N(Cc3cccc(Cl)c3)C3CCCC3)ncnc21 (configuration not stated)	98 to 100
CC1(C)CC(=O)c2c(Br)cn(-c3ccccn3)c2C1	166 to 168
O=C(O)C1=CC2(CCSCC2)Oc2ccc([N+](=O)[O-])cc21	259 to 261
NS(=O)(=O)c1ccc(NN=C2C(=O)Nc3ccc(C(=O)NCCCO)cc32)cc1	> 230
CC(=O)ONc1nc(CC(=O)Nc2cccc(C(F)(F)F)c2)cs1	137 to 140
CC(C)COc1ccc(COc2ccc(CC(=O)O)cc2Cl)cc1Cl	128 to 129
O=Cc1cc([N+](=O)[O-])cc(O)c1O	226 to 228

The next lines start with the values.

melting point [°C]	SMILES
116 to 117	Fc1ccc2c(c1)[C@@H]1c3ccccc3N[C@@H]1C2 (relative stereo)
206 to 210	O=C1C=C(O)C(=O)c2cc(F)ccc21
131	O=C(O)Cc1cc(C(=O)c2ccccc2)cc(Cl)c1O
283 to 284	Cc1c(O)ccc2c(=O)c(-c3cccc(C(F)(F)F)c3)coc12
190 to 192	CCn1ncnc1COc1nn2c(-c3ccccc3F)nncc2c1-c1cccs1
90 to 92	Cc1ccc(S(=O)(=O)OCC2Cc3cccc(-c4ccsc4)c3O2)cc1 (configuration not stated)
155 to 158	N#Cc1ccc(-c2ccc(OS(N)(=O)=O)c(Cl)c2)cc1Cn1cncn1
145 to 146	Oc1c(-c2ccccc2)cc(Cn2c(=S)sc3ccccc32)cc1-c1ccccc1
159 to 162	NCC1Cc2cc(-c3ccccc3)cc(-c3ccc(F)cc3F)c2O1 (configuration not stated)
39 to 42	OCCCC1(c2ccccc2)OCCO1
100 to 103	Cc1ccc(N)c(-c2nc(C(F)(F)F)cs2)c1
> 285	O=Cc1cn([C@H]2CCc3c(F)cc(F)cc3C2)c(=S)[nH]1
110	CN(C)C1=C(c2cccc(C(F)(F)F)c2)C(=O)OC1
148 to 152	Oc1ccc2c(c1)OCC1c3ccccc3OC21 (configuration not stated)
141 to 143	Cc1ccc(-c2nnc(N3CCCCC3)nc2-c2ccc(C)cc2)cc1
188 to 189	Cc1csc(N2N=C(c3ccc([N+](=O)[O-])cc3)c3cc4c(cc3CC2C)OCO4)n1 (configuration not stated)
196 to 197	O=c1nc(-c2c(F)cccc2F)oc(=O)n1-c1ccc(Cl)c(Cl)c1
92 to 97	O=Cc1ccc(OCCc2coc(-c3ccccc3)n2)cc1
112 to 114	CNCC1(O)c2ccccc2C=Cc2ccccc21
191 to 192	O=C1OC(CCOc2ccc3oc4ccccc4c3c2)C(O)=C1O (configuration not stated)
240	CC(C(=O)O)c1ccc2nc3ccc(S(C)(=O)=O)cn3c(=O)c2c1 (configuration not stated)
166 to 167	CNc1cc(C=O)cc(S(N)(=O)=O)c1Oc1ccccc1
193 to 194	CC(C)Cc1ccc2c(c1)C(=O)N(c1ccc3c(ccn3C)c1)C2
134 to 136	CC(=O)Nc1ccc(F)cc1OCCOc1ccc(N)cc1F
50 to 51	O=C(NCCO)C1(c2cccc3nn(Cc4cccc(C(F)(F)F)c4)cc23)C=CC=CN1 (configuration not stated)
218 to 221	CNc1ccc(Nc2nc(N3CCOCC3)nc(-n3c(C(F)F)nc4c(OC)cccc43)n2)cn1
262 to 264	O=C1NC(=O)c2c1c(-c1ccccc1)cc1[nH]c3ccccc3c21

melting point [°C]	SMILES
135 to 136	C=C1C(=O)c2ccccc2OC1c1ccc([N+](=O)[O-])cc1 (configuration not stated)
170	CCCCNC(=O)COC1c2ccccc2C(=O)N1c1ccc2ccc(OC)nc2n1 (configuration not stated)
70 to 75	O=C(O)CCc1cc2cc(Cl)ccc2n1S(=O)(=O)c1ccc(Oc2ccccc2)cc1
70 to 71	CCOc1cc(CCCOc2c(C)cc(-c3noc(C4CC4)n3)cc2C)on1
157	COc1ccc(S(=O)(=O)c2ncn(-c3ccccc3)c2-c2ccccc2)cc1
141 to 142	CCCNC(=O)c1nc(-c2ccccc2)c(-c2ccc(=O)n(C(C)C)n2)s1
143 to 145	CC1(CC(=O)O)OCCc2nc(-c3ccccc3)sc21 (configuration not stated)
310 to 312	NS(=O)(=O)c1ccc(-c2[nH]c3ccc(Br)cc3c2-c2ccccc2)cc1
63 to 64	Cc1cc(C)c2c(c1C)OC1(CCN(C)CC1)C2c1ccc(C(C)C)cc1 (configuration not stated)
193	COc1ccccc1C1C(=O)Nc2cc(C)c(Cl)cc21 (configuration not stated)
149 to 151	COC(=O)CCC(=O)c1ccc(-c2ccc(C#N)cc2)cc1
115 to 129	CN(CCSC(=O)Cc1ccccc1Nc1c(Cl)cccc1Cl)CC1(SN=O)CCCCC1
165 to 167	CCOc1ccc2c(c1)CCc1c(cccc1C(=O)O)S2
102 to 107	OCc1ccc(Cl)cc1C(O)c1ccccc1 (configuration not stated)
255	Cc1c(Nc2c(C#N)cnc3sccc23)ccc2[nH]ccc12
163 to 165	Fc1ccc2c(C3CCN(CCc4ccccc4)CC3)n[nH]c2c1
154 to 156	Fc1cc(F)c(CN2CCNc3ncc(I)cc32)cc1F
94 to 97	CC(C)(C)c1ccc(OCC(O)CN2CCC3(CC2)CSC2=C(O3)c3cc(-c4ccccc4)ccc3C(=O)C2=O)cc1 (configuration not stated)
115 to 119	CSc1cc(Oc2cccc(C(F)(F)F)c2)nc(C(=O)Nc2ccccc2)c1
140 to 141	Clc1cnc2c(-c3ccccc3)nc(Cl)nc2c1
192	c1ccc2c(c1)ncc1nc(C3CCCC3)[nH]c12
122	Fc1ccc(-c2cnc3ccccc3n2)cc1
270 to 280	Sc1nnc2c3ccccc3cnn12
192 to 194	Cc1nn(-c2cccnc2)c2nc3cc(F)c(F)cc3c(Cl)c12
110	O=C(Cc1cccc(OCCCN(Cc2cccc(C(F)(F)F)c2Cl)CC(c2ccccc2)c2ccccc2)c1)NS(=O)(=O)c1ccccc1
179 to 180	Cc1nnc(-c2ccc3occ(-c4ccc5c(c4)C(C)(C)CS5=O)c3c2)o1 (configuration not stated)
225 to 227	O=C1c2cc(O)ccc2N(Cc2ccccc2)C2=NCCN12
